Molecules are shown by their SMILES.

The target of the test is T1, human PAD4 (Homo sapiens, UniProt Q9UM07).
T1 construct: human PAD4 (NM_012387), A2-P663, was PCR amplified; His-SUMO (N, cleaved yes); made in house; host or cells: E. coli BL21(DE3)
T1 sequence (Q9UM07 2-663): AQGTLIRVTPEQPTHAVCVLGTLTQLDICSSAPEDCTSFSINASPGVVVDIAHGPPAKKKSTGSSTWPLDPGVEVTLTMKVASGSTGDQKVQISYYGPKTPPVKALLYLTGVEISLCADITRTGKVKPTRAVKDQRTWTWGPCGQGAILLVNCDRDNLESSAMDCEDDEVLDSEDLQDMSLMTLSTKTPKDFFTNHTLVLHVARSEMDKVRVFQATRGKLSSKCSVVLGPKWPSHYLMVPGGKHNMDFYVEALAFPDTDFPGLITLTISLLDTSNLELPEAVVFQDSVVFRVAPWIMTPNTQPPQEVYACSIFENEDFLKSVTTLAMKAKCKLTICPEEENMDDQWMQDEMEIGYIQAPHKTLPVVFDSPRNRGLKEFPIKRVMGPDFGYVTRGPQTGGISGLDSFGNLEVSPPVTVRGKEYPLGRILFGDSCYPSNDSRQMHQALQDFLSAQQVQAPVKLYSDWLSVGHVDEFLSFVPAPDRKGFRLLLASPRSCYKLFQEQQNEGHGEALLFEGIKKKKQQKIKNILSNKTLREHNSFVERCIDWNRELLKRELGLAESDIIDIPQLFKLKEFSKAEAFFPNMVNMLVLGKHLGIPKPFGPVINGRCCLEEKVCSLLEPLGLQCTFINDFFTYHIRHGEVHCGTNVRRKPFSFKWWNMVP
Kind of test: In vitro PAD4 BAEE biochemical assay. Particulars: BAEE substrate 3 mM, 5 nM PAD4, 2 mM calcium chloride; geometric mean of multiple experiments. An outline of the steps: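 Recombinant PAD4 (5 nM final) with 2 mM CaCl2 was preincubated with compound for 30 min at 25 °C in MOPS pH 7.6 buffer with DTT, then reacted with 3 mM BAEE for 2 h at 25 °C. Released ammonia was detected fluorimetrically with o-phthalaldehyde/DTT; IC50 from four-parameter fit, geometric mean of experiments.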
Consider `COc1cc(C(=O)N2CC[C@@H](OC)[C@@H](N)C2)cc2nc(-c3cc4ccc5nc4n3CCCCCC[C@@H](OC)C(=O)N[C@@H]5C)n(C)c12` [Example 628, (8~{R},11~{R})-17-[5-[(3~ {S},4~{R})-3-amino-4-methoxy-piperidine-1-carbonyl]-7-methoxy-1-methyl-benzimidazol-2-yl]-8-methoxy-11-methyl-1,10,19-triazatricyclo [10.5.2.0^{15,18}] nonadeca-12(19),13,15(18),16-tetraen-9-one], for which the 50% inhibitory concentration (IC50) turned out to be 83 nM.
For `COc1cc(C(=O)N2CC[C@@H](OC(F)F)[C@@H](N)C2)cc2nc(-c3cc4ccc5nc4n3CCCCCC[C@@H](OC)C(=O)N[C@@H]5C)n(C)c12` [Example 629, (8~{R},11~{R})-17-[5-[(3~ {S},4~{R})-3-amino-4-(difluoromethoxy)piperidine-1-carbonyl]-7-methoxy-1-methyl-benzimidazol-2-yl]-8-methoxy-11-methyl-1,10,19-triazatricyclo [10.5.2.0^{15,18}]nonadeca-12(19),13,15(18),16-tetraen-9-one], the half-maximal inhibitory concentration (IC50) stood at 108 nM.
As for `COc1ccnc2c1C(=O)N[C@H](C)c1ccc3cc(-c4nc5cc(C(=O)N6CC[C@@H](OC)[C@@H](N)C6)cc(OC)c5n4C)n(c3n1)CCCCC2` [Example 630, (2~{R})-17-[5-[(3~{S),4~ {R})-3-amino-4-methoxy-piperidine-1-carbonyl]-7-methoxy-1-methyl-benzimidazol-2-yl]-6-methoxy-2-methyl-3,9,16,22-tetrazatetracyclo[14.5.2.0^ {5,10}.0^{19,23}] tricosa-1(22),5(10), 6,8,17,19(23),20-heptaen-4-one], the IC50 turned out to be 122 nM.
On to `COc1cc(C(=O)N2C[C@H](N)C[C@H](C(F)F)C2)cc2nc(-c3cc4ccc5nc4n3CCCCC[C@@H]3C[C@H]3C(=O)N[C@@H]5C)n(C)c12` [Example 631, (2~{R},5~{R},7~{R})-14-[5-[(3~{R},5~{S})-3-amino-5-(difluoromethyl)piperidine-1-carbonyl]-7-methoxy-1-methyl-benzimidazol-2-yl]-2-methyl-3,13,19-triazatetracyclo[11.5.2.0^ {5,7}.0^{16,20}]icosa-1(19),14,16(20),17-tetraen-4-one], for which the 50% inhibitory concentration (IC50) amounted to 211 nM.
With `COc1cc(C(=O)N2CC3(CCCCNC3)C2)cc2nc(-c3cc4ccc5nc4n3CC(F)(F)CCC[C@@H]3C[C@H]3C(=O)N[C@@H]5C)n(C)c12` [Example 632, (2~{R},5~{R},7~{R})-14-[5-(2,9-diazaspiro[3.6]decane-2-carbonyl)-7-methoxy-1-methyl-benzimidazol-2-yl]-11,11-difluoro-2-methyl-3,13,19-triazatetracyclo [11.5.2.0^{5,7}.0^{16,20}] icosa-1(19),14,16(20), 17-tetraen-4-one], the IC50 was 46 nM.
For the compound `COc1cc(C(=O)N[C@H]2CNC[C@@H](C(F)F)C2)cc2nc(-c3cc4ccc5nc4n3CC(F)(F)CCC[C@@H]3C[C@H]3C(=O)N[C@@H]5C)n(C)c12` [Example 633, 2-[(2~{R},5~{R},7~{R})-11,11-difluoro-2-methyl-4-oxo-3,13,19-triazatetracyclo[11.5.2.0^ {5,7}.0^{16,20}]icosa-1(19),14,16(20), 17-tetraen-14-yl]- ~{N}-[(3~{R},5~{S})-5-(difluoromethyl)-3-piperidyl]-7-methoxy-1-methyl-benzimidazole-5-carboxamide], the IC50 was 57 nM.
Turning to `COc1cc(C(=O)N2CC[C@@H](OC)[C@@H](N)C2)cc2nc(-c3cc4ccc5nc4n3CCCCC[C@@H]3C[C@@]3(C(F)(F)F)C(=O)N[C@@H]5C)n(C)c12` [Example 634, (2~{R},5~{S},7~{R})-14-[5-[(3~{S},4~{R})-3-amino-4-methoxy-piperidine-1-carbonyl]-7-methoxy-1-methyl-benzimidazol-2-yl]-2-methyl-5-(trifluoromethyl)-3,13,19-triazatetracyclo[11.5.2.0^ {5,7}.0^{16,20}] icosa-1(19),14,16(20), 17-tetraen-4-one], the IC50 came to 251 nM.
`COc1cc(C(=O)N2CC[C@@H](OC)[C@@H](N)C2)cc2nc(-c3cc4ccc5nc4n3CCC/C=C/[C@@H]3C[C@@]3(C(F)(F)F)C(=O)N[C@@H]5C)n(C)c12` [Example 635, (2~{R},5~{S},7~{S},8~{E})-14-[5-[(3~{S},4~{R})-3-amino-4-methoxy-piperidine-1-carbonyl]-7-methoxy-1-methyl-benzimidazol-2-yl]-2-methyl-5-(trifluoromethyl)-3,13,19-triazatetracyclo[11.5.2.0^ {5,7}.0^{16,20}] icosa-1(19),8,14,16(20), 17-pentaen-4-one]: the IC50 amounted to 682 nM.
Turning to `COc1cc(C(=O)N2CC[C@@H](OC)[C@@H](N)C2)cc2nc(-c3cc4ccc5nc4n3CCCCC[C@H]3C[C@]3(C(F)(F)F)C(=O)N[C@@H]5C)n(C)c12` [Example 636, (2~{R},5~{R},7~{S})-14-[5-[(3~{S},4~{R})-3-amino-4-methoxy-piperidine-1-carbonyl]-7-methoxy-1-methyl-benzimidazol-2-yl]-2-methyl-5-(trifluoromethyl)-3,13,19-triazatetracyclo [11.5.2.0^{5,7}.0^ {16,20}]icosa-1(19), 14,16(20),17-tetraen-4-one], the IC50 stood at 52 nM.
For the compound `[2H]C([2H])([2H])O[C@@H]1CCN(C(=O)c2cc(OC)c3c(c2)nc(-c2cc4ccc5nc4n2CC(F)(F)CCC[C@@H]2C[C@H]2C(=O)N[C@@H]5C)n3C)C[C@@H]1N` [Example 637, (2~{R},5~{R},7~{R})-14-[5-[(3~{S},4~{R})-3-amino-4-(trideuteriomethoxy)piperidine-1-carbonyl]-7-methoxy-1-methyl-benzimidazol-2-yl]-11,11-difluoro-2-methyl-3,13,19-triazatetracyclo[11.5.2.0^ {5,7}.0^{16,20}] icosa-1(19),14,16(20), 17-tetraen-4-one], the IC50 came to 31 nM.
As to `C[C@@H]1[C@H](N)CCCN1C(=O)c1cc(F)c2c(c1)nc(-c1cc3ccc4nc3n1CC(F)(F)CCC[C@@H]1C[C@H]1C(=O)N[C@@H]4C)n2C1CC1` [Example 639, (2~{R},5~{R},7~{R})-14-[5-[(2~{R},3~{R})-3-amino-2-methyl-piperidine-1-carbonyl]-1-cyclopropyl-7-fluoro-benzimidazol-2-yl]-11,11-difluoro-2-methyl-3,13,19-triazatetracyclo[11.5.2.0^ {5,7}.0^{16,20}]icosa-1(19),14,16(20),17-tetraen-4-one], the IC50 is 15 nM.
Regarding `C[C@H]1NC(=O)[C@@H]2C[C@H]2CCCC(F)(F)Cn2c(-c3nc4cc(C(=O)N5C[C@H](N)C[C@@H](F)C5)cc(F)c4n3C3CC3)cc3ccc1nc32` [Example 640, (2~{R},5~{R},7~{R})-14-[5-[(3~{R},5~{R})-3-amino-5-fluoro-piperidine-1-carbonyl]-1-cyclopropyl-7-fluoro-benzimidazol-2-yl]-11,11-difluoro-2-methyl-3,13,19-triazatetracyclo[11.5.2.0^ {5,7}.0^{16,20}]icosa-1(19),14,16(20),17-tetraen-4-one], the half-inhibitory concentration (IC50) amounted to 24 nM.
